Experiments:
[1] = tested on: thermostable luciferase (Luc 146-1H2); test: Thermostable luciferase reaction with luciferin derivatives: light readings; assay type: biochemical
Description: (§1) This stock was used to produce enzyme stock solution having of 200 µg/ml enzyme solution in 1 mg/ml BSA, 200 mM HEPES buffer, pH 8.0, 20 mM MgCl2.
(§2) Solutions were made using a 1 M DTT solution, pH adjusted to 8.0, a 20 mM Coenzyme A solution in water (both described in examples above), a 100 mM ATP solution and water to create the following solutions: Sol'A, 100 µM ATP; Sol'B, 100 µM ATP, 4 mM Coenzyme A; Sol'n C, 100 µM ATP, 400 mM DTT, and; Sol'n D, 100 µM ATP, 4 mM Coenzyme A and 400 mM DTT.
The following reactions were prepared (Table 47) Table 47
(§3) After assembly, the reactions were initiated by addition of 25 µl of the thermostable luciferase stock solution above and mixing the tube contents. A 50 µl sample was immediately removed and placed in a luminometer tube and the light read and the tube then replaced in a tube rack at room temperature. While the light reading was being taken, a 5 µl sample of the remaining reaction (which was kept at room temperature) was diluted into 495 µl of 50 mM BisTris, pH 6.5, 1 mg/ml BSA, 1 mM EDTA prechilled to 4°C and the tube mixed and placed on ice. The light produced by the samples in the luminometer tubes were re-read at 20, 40, 60, 90 and 120 minutes post enzyme addition. Additional 5 µl samples were taken and diluted as above at 60 and 120 minutes post enzyme addition. Once all these readings and samples were taken, 50 µl of the diluted samples was mixed with 50 µl of Steady Glo in luminometer tubes, the tubes incubated 10 minutes on ice then the light produced was read on a Turner TD 20/20 luminometer.

[2] = tested on: thermostable luciferase (Luc 146-1H2); test: Residual thermostable luciferase activity after reaction with luciferin derivatives (Steady Glo); assay type: biochemical
Description: as §1, §2, §3

light readings from the reaction samples ([1]; substrate 6.25 (L'in-BE: 6.26), + Co A & DTT, Time 0 min): 77.35 | light readings from the reaction samples ([1]; substrate 6.25 (L'in-BE: 6.26), + Co A & DTT, Time 20 min): 7.958 | light readings from the reaction samples ([1]; substrate 6.25 (L'in-BE: 6.26), + Co A & DTT, Time 40 min): 3.656 | light readings from the reaction samples ([1]; substrate 6.25 (L'in-BE: 6.26), + Co A & DTT, Time 60 min): 2.312 | light readings from the reaction samples ([1]; substrate 6.25 (L'in-BE: 6.26), + Co A & DTT, Time 90 min): 1.414 | light readings from the reaction samples ([1]; substrate 6.25 (L'in-BE: 6.26), + Co A & DTT, Time 120 min): 1.134 | light readings from the reaction samples ([1]; substrate 6.25 (L'in-BE: 6.26), + Co A, Time 0 min): 1829 | light readings from the reaction samples ([1]; substrate 6.25 (L'in-BE: 6.26), + Co A, Time 20 min): 114 | light readings from the reaction samples ([1]; substrate 6.25 (L'in-BE: 6.26), + Co A, Time 40 min): 57.82 | light readings from the reaction samples ([1]; substrate 6.25 (L'in-BE: 6.26), + Co A, Time 60 min): 37.53 | light readings from the reaction samples ([1]; substrate 6.25 (L'in-BE: 6.26), + Co A, Time 90 min): 24.66 | light readings from the reaction samples ([1]; substrate 6.25 (L'in-BE: 6.26), + Co A, Time 120 min): 17.02 | light readings from the reaction samples ([1]; substrate 6.25 (L'in-BE: 6.26), + DTT, Time 0 min): 72.52 | light readings from the reaction samples ([1]; substrate 6.25 (L'in-BE: 6.26), + DTT, Time 20 min): 5.903 | light readings from the reaction samples ([1]; substrate 6.25 (L'in-BE: 6.26), + DTT, Time 40 min): 3.073 | light readings from the reaction samples ([1]; substrate 6.25 (L'in-BE: 6.26), + DTT, Time 60 min): 2.089 | light readings from the reaction samples ([1]; substrate 6.25 (L'in-BE: 6.26), + DTT, Time 90 min): 1.431 | light readings from the reaction samples ([1]; substrate 6.25 (L'in-BE: 6.26), + DTT, Time 120 min): 1.125 | light readings from the reaction samples ([1]; substrate 6.25 (L'in-BE: 6.26), Alone, Time 0 min): 121 | light readings from the reaction samples ([1]; substrate 6.25 (L'in-BE: 6.26), Alone, Time 20 min): 5.884 | light readings from the reaction samples ([1]; substrate 6.25 (L'in-BE: 6.26), Alone, Time 40 min): 3.316 | light readings from the reaction samples ([1]; substrate 6.25 (L'in-BE: 6.26), Alone, Time 60 min): 2.352 | light readings from the reaction samples ([1]; substrate 6.25 (L'in-BE: 6.26), Alone, Time 90 min): 1.569 | light readings from the reaction samples ([1]; substrate 6.25 (L'in-BE: 6.26), Alone, Time 120 min): 1.154 | light readings from the reaction samples ([1]; substrate 25, + Co A & DTT, Time 0 min): 57.98 | light readings from the reaction samples ([1]; substrate 25, + Co A & DTT, Time 20 min): 5.721 | light readings from the reaction samples ([1]; substrate 25, + Co A & DTT, Time 40 min): 3.272 | light readings from the reaction samples ([1]; substrate 25, + Co A & DTT, Time 60 min): 2.192 | light readings from the reaction samples ([1]; substrate 25, + Co A & DTT, Time 90 min): 1.379 | light readings from the reaction samples ([1]; substrate 25, + Co A & DTT, Time 120 min): 1.174 | light readings from the reaction samples ([1]; substrate 25, + Co A, Time 0 min): 489.2 | light readings from the reaction samples ([1]; substrate 25, + Co A, Time 20 min): 45.45 | light readings from the reaction samples ([1]; substrate 25, + Co A, Time 40 min): 25.08 | light readings from the reaction samples ([1]; substrate 25, + Co A, Time 60 min): 16.96 | light readings from the reaction samples ([1]; substrate 25, + Co A, Time 90 min): 11.03 | light readings from the reaction samples ([1]; substrate 25, + Co A, Time 120 min): 7.309 | light readings from the reaction samples ([1]; substrate 25, + DTT, Time 0 min): 56.59 | light readings from the reaction samples ([1]; substrate 25, + DTT, Time 20 min): 3.761 | light readings from the reaction samples ([1]; substrate 25, + DTT, Time 40 min): 2.196 | light readings from the reaction samples ([1]; substrate 25, + DTT, Time 60 min): 1.668 | light readings from the reaction samples ([1]; substrate 25, + DTT, Time 90 min): 1.274 | light readings from the reaction samples ([1]; substrate 25, + DTT, Time 120 min): 1.157 | light readings from the reaction samples ([1]; substrate 25, Alone, Time 0 min): 59.87 | light readings from the reaction samples ([1]; substrate 25, Alone, Time 20 min): 3.176 | light readings from the reaction samples ([1]; substrate 25, Alone, Time 40 min): 1.919 | light readings from the reaction samples ([1]; substrate 25, Alone, Time 60 min): 1.305 | light readings from the reaction samples ([1]; substrate 25, Alone, Time 90 min): 1.178 | light readings from the reaction samples ([1]; substrate 25, Alone, Time 120 min): 1.03 | light readings from the reaction samples ([1]; substrate 100, + Co A & DTT, Time 0 min): 25.41 | light readings from the reaction samples ([1]; substrate 100, + Co A & DTT, Time 20 min): 3.278 | light readings from the reaction samples ([1]; substrate 100, + Co A & DTT, Time 40 min): 2.027 | light readings from the reaction samples ([1]; substrate 100, + Co A & DTT, Time 60 min): 1.666 | light readings from the reaction samples ([1]; substrate 100, + Co A & DTT, Time 90 min): 1.27 | light readings from the reaction samples ([1]; substrate 100, + Co A & DTT, Time 120 min): 1.157 | light readings from the reaction samples ([1]; substrate 100, + Co A, Time 0 min): 97.88 | light readings from the reaction samples ([1]; substrate 100, + Co A, Time 20 min): 10.3 | light readings from the reaction samples ([1]; substrate 100, + Co A, Time 40 min): 7.127 | light readings from the reaction samples ([1]; substrate 100, + Co A, Time 60 min): 5.562 | light readings from the reaction samples ([1]; substrate 100, + Co A, Time 90 min): 3.969 | light readings from the reaction samples ([1]; substrate 100, + Co A, Time 120 min): 2.845 | light readings from the reaction samples ([1]; substrate 100, + DTT, Time 0 min): 22.47 | light readings from the reaction samples ([1]; substrate 100, + DTT, Time 20 min): 2.233 | light readings from the reaction samples ([1]; substrate 100, + DTT, Time 40 min): 1.292 | light readings from the reaction samples ([1]; substrate 100, + DTT, Time 60 min): 1.164 | light readings from the reaction samples ([1]; substrate 100, + DTT, Time 90 min): 1.093 | light readings from the reaction samples ([1]; substrate 100, + DTT, Time 120 min): 0.958 | light readings from the reaction samples ([1]; substrate 100, Alone, Time 0 min): 20.46 | light readings from the reaction samples ([1]; substrate 100, Alone, Time 20 min): 1.18 | light readings from the reaction samples ([1]; substrate 100, Alone, Time 40 min): 0.868 | light readings from the reaction samples ([1]; substrate 100, Alone, Time 60 min): 0.788 | light readings from the reaction samples ([1]; substrate 100, Alone, Time 90 min): 0.627 | light readings from the reaction samples ([1]; substrate 100, Alone, Time 120 min): 0.544 | light values obtained upon addition of the diluted reaction samples into Steady Glo reagent ([2]; Substrate 6.25, + Co A & DTT, Time Sample Taken 0 min): 1836 | light values obtained upon addition of the diluted reaction samples into Steady Glo reagent ([2]; Substrate 6.25, + Co A & DTT, Time Sample Taken 60 min): 1625 | light values obtained upon addition of the diluted reaction samples into Steady Glo reagent ([2]; Substrate 6.25, + Co A & DTT, Time Sample Taken 120 min): 1622 | light values obtained upon addition of the diluted reaction samples into Steady Glo reagent ([2]; Substrate 6.25, + Co A, Time Sample Taken 0 min): 1647 | light values obtained upon addition of the diluted reaction samples into Steady Glo reagent ([2]; Substrate 6.25, + Co A, Time Sample Taken 60 min): 976.8 | light values obtained upon addition of the diluted reaction samples into Steady Glo reagent ([2]; Substrate 6.25, + Co A, Time Sample Taken 120 min): 921.4 | light values obtained upon addition of the diluted reaction samples into Steady Glo reagent ([2]; Substrate 6.25, + DTT, Time Sample Taken 0 min): 1631 | light values obtained upon addition of the diluted reaction samples into Steady Glo reagent ([2]; Substrate 6.25, + DTT, Time Sample Taken 60 min): 1544 | light values obtained upon addition of the diluted reaction samples into Steady Glo reagent ([2]; Substrate 6.25, + DTT, Time Sample Taken 120 min): 1695 | light values obtained upon addition of the diluted reaction samples into Steady Glo reagent ([2]; Substrate 6.25, Alone, Time Sample Taken 0 min): 1402 | light values obtained upon addition of the diluted reaction samples into Steady Glo reagent ([2]; Substrate 6.25, Alone, Time Sample Taken 60 min): 1158 | light values obtained upon addition of the diluted reaction samples into Steady Glo reagent ([2]; Substrate 6.25, Alone, Time Sample Taken 120 min): 1073 | light values obtained upon addition of the diluted reaction samples into Steady Glo reagent ([2]; Substrate 25, + Co A & DTT, Time Sample Taken 0 min): 529.6 | light values obtained upon addition of the diluted reaction samples into Steady Glo reagent ([2]; Substrate 25, + Co A & DTT, Time Sample Taken 60 min): 1268 | light values obtained upon addition of the diluted reaction samples into Steady Glo reagent ([2]; Substrate 25, + Co A & DTT, Time Sample Taken 120 min): 1329 | light values obtained upon addition of the diluted reaction samples into Steady Glo reagent ([2]; Substrate 25, + Co A, Time Sample Taken 0 min): 1547 | light values obtained upon addition of the diluted reaction samples into Steady Glo reagent ([2]; Substrate 25, + Co A, Time Sample Taken 60 min): 777.5 | light values obtained upon addition of the diluted reaction samples into Steady Glo reagent ([2]; Substrate 25, + Co A, Time Sample Taken 120 min): 588.7 | light values obtained upon addition of the diluted reaction samples into Steady Glo reagent ([2]; Substrate 25, + DTT, Time Sample Taken 0 min): 1116 | light values obtained upon addition of the diluted reaction samples into Steady Glo reagent ([2]; Substrate 25, + DTT, Time Sample Taken 60 min): 1372 | light values obtained upon addition of the diluted reaction samples into Steady Glo reagent ([2]; Substrate 25, + DTT, Time Sample Taken 120 min): 1393 | light values obtained upon addition of the diluted reaction samples into Steady Glo reagent ([2]; Substrate 25, Alone, Time Sample Taken 0 min): 1345 | light values obtained upon addition of the diluted reaction samples into Steady Glo reagent ([2]; Substrate 25, Alone, Time Sample Taken 60 min): 973.4 | light values obtained upon addition of the diluted reaction samples into Steady Glo reagent ([2]; Substrate 25, Alone, Time Sample Taken 120 min): 860.3
SMILES: O=C(O)[C@H]1CSC(c2nc3ccc(OCCCl)cc3s2)=N1 [L'in-CEE]
